{
  "source": "patent US10766902B2",
  "about": "“Wee-1 inhibiting pyrazolopyrimidinone compounds” (ALMAC DISCOVERY LIMITED, priority 2016, dated 2020)",
  "key": {"KDR (VEGFR2)": {"molecular_target": "KDR (VEGFR2) (Homo sapiens (Human), UniProt P35968)", "sequence (P35968 20-1356)": "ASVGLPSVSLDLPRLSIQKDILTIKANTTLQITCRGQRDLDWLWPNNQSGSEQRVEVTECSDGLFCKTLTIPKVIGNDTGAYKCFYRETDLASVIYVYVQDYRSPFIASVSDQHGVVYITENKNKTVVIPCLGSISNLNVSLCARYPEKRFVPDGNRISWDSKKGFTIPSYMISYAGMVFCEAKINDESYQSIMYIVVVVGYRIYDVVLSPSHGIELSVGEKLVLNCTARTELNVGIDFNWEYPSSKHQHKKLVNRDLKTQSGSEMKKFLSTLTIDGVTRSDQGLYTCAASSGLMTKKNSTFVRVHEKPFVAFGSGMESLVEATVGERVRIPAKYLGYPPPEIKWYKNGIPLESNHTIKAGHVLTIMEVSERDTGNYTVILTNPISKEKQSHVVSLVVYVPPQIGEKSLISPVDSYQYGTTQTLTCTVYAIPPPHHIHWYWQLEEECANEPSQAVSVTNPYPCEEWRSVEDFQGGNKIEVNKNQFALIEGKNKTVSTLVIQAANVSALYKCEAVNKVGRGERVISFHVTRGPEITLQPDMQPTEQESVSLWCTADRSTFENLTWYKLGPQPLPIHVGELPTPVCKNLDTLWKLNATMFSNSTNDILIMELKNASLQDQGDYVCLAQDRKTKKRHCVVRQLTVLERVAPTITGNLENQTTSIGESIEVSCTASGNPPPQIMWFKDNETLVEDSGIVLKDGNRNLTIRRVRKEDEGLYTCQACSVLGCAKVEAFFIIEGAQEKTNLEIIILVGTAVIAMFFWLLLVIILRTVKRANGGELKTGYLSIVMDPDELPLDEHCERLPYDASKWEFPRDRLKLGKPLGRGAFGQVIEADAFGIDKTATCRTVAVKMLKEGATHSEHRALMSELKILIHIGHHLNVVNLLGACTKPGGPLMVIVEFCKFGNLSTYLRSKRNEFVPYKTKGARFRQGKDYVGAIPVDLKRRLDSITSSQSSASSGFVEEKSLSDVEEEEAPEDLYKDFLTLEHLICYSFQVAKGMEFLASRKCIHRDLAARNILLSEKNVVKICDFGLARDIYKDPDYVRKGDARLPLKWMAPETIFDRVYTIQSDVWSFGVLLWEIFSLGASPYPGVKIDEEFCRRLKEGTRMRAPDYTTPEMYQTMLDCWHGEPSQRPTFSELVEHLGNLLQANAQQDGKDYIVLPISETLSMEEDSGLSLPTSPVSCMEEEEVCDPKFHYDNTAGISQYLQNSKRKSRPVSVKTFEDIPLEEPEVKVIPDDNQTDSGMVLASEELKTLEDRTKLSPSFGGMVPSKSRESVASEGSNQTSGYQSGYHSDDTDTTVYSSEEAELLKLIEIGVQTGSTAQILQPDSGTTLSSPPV", "assay": "SelectScreen Kinase Profiling: KDR (VEGFR2)", "format": "biochemical", "settings": "tested at 300-350 nM", "source_text": "(§1) Table 4 below highlights the selectivity of a representative compound of the invention, Example 5, against a panel of 50 kinases (assessed using the Invitrogen SelectScreen® Kinase Profiling Service)."}, "AURKA (Aurora A)": {"molecular_target": "AURKA (Aurora A) (Homo sapiens (Human), UniProt O14965)", "assay": "SelectScreen Kinase Profiling: AURKA (Aurora A)", "format": "biochemical", "settings": "tested at 300-350 nM", "source_text": "as §1"}, "AMPK A1/B1/G1": {"molecular_target": "AMPK A1/B1/G1 (Homo sapiens (Human), UniProt Q13131)", "sequence (Q13131 whole entry)": "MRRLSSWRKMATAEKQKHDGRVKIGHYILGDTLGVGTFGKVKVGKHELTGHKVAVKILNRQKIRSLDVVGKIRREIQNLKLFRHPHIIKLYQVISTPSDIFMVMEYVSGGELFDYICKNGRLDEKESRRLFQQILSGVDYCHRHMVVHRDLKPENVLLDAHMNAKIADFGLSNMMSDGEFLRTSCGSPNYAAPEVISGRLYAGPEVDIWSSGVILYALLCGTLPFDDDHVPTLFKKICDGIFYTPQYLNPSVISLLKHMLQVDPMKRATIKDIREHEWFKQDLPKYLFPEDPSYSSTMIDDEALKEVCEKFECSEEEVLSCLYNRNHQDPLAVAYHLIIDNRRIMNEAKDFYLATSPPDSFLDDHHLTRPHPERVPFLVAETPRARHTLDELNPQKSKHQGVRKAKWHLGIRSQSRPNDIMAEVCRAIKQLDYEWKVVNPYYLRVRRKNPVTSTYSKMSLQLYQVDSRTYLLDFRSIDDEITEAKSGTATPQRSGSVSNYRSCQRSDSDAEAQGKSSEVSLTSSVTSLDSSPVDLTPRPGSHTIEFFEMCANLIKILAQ", "sequence (Q9Y478 whole entry partner)": "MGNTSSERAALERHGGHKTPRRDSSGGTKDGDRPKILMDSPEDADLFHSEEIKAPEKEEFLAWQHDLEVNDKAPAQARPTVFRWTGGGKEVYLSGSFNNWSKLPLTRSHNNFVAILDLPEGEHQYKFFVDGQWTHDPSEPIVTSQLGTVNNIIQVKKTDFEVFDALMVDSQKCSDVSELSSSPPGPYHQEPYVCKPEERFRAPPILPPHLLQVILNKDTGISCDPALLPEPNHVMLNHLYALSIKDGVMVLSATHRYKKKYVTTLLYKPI", "sequence (P54619 whole entry partner)": "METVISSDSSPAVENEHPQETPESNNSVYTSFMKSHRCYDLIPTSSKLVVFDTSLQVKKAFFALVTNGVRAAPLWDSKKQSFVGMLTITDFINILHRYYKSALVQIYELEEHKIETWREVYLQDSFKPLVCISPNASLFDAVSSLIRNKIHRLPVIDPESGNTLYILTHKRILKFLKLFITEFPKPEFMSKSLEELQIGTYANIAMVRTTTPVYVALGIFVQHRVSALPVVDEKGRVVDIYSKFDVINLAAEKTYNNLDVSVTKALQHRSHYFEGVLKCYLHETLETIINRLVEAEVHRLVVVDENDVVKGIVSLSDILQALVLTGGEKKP", "assay": "SelectScreen Kinase Profiling: AMPK A1/B1/G1", "format": "biochemical", "settings": "tested at 300-350 nM", "source_text": "as §1"}, "MAPK14 (p38 alpha)": {"molecular_target": "MAPK14 (p38 alpha) (Homo sapiens (Human), UniProt Q16539)", "assay": "SelectScreen Kinase Profiling: MAPK14 (p38 alpha)", "format": "biochemical", "settings": "tested at 300-350 nM", "source_text": "as §1"}, "ERBB2 (HER2)": {"molecular_target": "ERBB2 (HER2) (Homo sapiens (Human), UniProt P04626)", "assay": "SelectScreen Kinase Profiling: ERBB2 (HER2)", "format": "biochemical", "settings": "tested at 300-350 nM", "source_text": "as §1"}, "SYK": {"molecular_target": "SYK (Homo sapiens (Human), UniProt P43405)", "assay": "SelectScreen Kinase Profiling: SYK", "format": "biochemical", "settings": "tested at 300-350 nM", "source_text": "as §1"}, "DYRK3": {"molecular_target": "DYRK3 (Homo sapiens (Human), UniProt O43781)", "assay": "SelectScreen Kinase Profiling: DYRK3", "format": "biochemical", "settings": "tested at 300-350 nM", "source_text": "as §1"}, "IGF1R": {"molecular_target": "IGF1R (Homo sapiens (Human), UniProt P08069)", "sequence (P08069 31-1367)": "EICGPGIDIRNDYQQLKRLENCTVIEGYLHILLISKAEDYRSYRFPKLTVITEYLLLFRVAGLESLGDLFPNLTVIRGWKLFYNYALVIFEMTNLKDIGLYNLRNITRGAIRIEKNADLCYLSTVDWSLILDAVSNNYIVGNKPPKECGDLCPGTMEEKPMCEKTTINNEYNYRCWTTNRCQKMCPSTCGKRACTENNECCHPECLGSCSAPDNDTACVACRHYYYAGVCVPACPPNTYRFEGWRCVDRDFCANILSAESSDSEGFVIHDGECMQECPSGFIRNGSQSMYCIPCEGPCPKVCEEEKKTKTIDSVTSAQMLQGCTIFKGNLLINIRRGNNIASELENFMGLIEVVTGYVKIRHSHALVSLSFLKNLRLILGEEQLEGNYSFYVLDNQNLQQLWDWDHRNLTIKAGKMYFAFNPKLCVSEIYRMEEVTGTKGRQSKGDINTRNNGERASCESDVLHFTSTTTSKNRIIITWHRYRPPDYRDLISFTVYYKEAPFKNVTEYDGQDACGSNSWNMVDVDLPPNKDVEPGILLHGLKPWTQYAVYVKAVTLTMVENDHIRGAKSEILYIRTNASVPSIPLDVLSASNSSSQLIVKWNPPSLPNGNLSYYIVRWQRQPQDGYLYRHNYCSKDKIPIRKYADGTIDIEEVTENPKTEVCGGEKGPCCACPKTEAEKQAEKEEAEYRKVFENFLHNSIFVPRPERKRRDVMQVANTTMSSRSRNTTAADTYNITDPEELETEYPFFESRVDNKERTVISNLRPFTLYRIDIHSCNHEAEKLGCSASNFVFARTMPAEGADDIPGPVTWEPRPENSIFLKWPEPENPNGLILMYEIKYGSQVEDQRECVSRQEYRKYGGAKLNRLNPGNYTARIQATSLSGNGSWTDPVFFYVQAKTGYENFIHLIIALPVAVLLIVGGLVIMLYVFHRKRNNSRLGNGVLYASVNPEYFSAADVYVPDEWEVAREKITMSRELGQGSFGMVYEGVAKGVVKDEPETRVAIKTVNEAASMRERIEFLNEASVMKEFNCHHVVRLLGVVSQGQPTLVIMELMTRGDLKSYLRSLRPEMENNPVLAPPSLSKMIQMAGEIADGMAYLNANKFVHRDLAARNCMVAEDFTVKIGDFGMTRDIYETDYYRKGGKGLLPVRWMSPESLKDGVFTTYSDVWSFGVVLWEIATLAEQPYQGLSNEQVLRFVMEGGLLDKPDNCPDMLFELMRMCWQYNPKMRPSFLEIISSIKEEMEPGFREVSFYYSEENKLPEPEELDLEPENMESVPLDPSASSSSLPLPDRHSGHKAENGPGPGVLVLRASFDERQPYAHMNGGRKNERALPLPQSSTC", "assay": "SelectScreen Kinase Profiling: IGF1R", "format": "biochemical", "settings": "tested at 300-350 nM", "source_text": "as §1"}, "EPHA2": {"molecular_target": "EPHA2 (Homo sapiens (Human), UniProt P29317)", "sequence (P29317 24-976)": "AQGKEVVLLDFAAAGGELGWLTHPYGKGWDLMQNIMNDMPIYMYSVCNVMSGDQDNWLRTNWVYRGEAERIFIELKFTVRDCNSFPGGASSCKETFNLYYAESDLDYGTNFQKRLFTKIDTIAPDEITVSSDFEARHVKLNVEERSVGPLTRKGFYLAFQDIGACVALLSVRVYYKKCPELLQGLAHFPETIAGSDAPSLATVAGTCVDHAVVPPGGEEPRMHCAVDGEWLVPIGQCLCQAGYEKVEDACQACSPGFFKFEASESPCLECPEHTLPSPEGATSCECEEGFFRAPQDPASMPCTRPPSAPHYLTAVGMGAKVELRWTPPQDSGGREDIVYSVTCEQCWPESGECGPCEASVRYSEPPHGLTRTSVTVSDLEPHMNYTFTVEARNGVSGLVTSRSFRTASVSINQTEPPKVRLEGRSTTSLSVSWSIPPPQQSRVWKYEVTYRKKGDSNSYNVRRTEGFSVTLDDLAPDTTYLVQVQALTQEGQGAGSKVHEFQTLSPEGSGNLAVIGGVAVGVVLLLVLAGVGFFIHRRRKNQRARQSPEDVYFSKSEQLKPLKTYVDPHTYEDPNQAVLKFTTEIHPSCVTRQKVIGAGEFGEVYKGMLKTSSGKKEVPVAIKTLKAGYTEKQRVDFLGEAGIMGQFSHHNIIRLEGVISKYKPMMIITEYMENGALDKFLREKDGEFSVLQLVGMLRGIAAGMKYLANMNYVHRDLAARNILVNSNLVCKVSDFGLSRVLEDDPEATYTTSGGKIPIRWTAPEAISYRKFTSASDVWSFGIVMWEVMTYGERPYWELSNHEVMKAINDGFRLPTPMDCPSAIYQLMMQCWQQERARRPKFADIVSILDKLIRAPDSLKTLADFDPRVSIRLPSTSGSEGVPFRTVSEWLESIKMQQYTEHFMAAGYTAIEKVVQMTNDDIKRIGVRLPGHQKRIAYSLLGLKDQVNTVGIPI", "assay": "SelectScreen Kinase Profiling: EPHA2", "format": "biochemical", "settings": "tested at 300-350 nM", "source_text": "as §1"}, "MAP2K1 (MEK1)": {"molecular_target": "MAP2K1 (MEK1) (Homo sapiens (Human), UniProt Q02750)", "assay": "SelectScreen Kinase Profiling: MAP2K1 (MEK1)", "format": "biochemical", "settings": "tested at 300-350 nM", "source_text": "as §1"}, "NEK1": {"molecular_target": "NEK1 (Homo sapiens (Human), UniProt Q96PY6)", "assay": "SelectScreen Kinase Profiling: NEK1", "format": "biochemical", "settings": "tested at 300-350 nM", "source_text": "as §1"}, "NTRK1 (TRKA)": {"molecular_target": "NTRK1 (TRKA) (Homo sapiens (Human), UniProt P04629)", "assay": "SelectScreen Kinase Profiling: NTRK1 (TRKA)", "format": "biochemical", "settings": "tested at 300-350 nM", "source_text": "as §1"}, "A427 cells": {"tested_on": "A427 cells", "assay": "Cell viability (CellTiter-Glo), A427", "format": "cell-based", "settings": "Homo sapiens, A-427; cell viability after 72 hours", "description": "All cell lines (HT29, A427, A498, SKLU-1) were obtained from the American Type Culture Collection (ATCC), maintained in the recommended media supplemented with 10% (v/v) FBS, 1% (v/v) Penicillin/streptomycin and kept at 37° C. in a humidified atmosphere with 5% CO2. Cells were seeded in 96 wp format typically at a seeding density of 3500-5000 cells/well and treated after 24 hours with increasing concentration of compound from 0 to 100 μM in ½ log unit increments. Cell viability was assessed after 72 hours (HT29, A427) or after 6 days (SKLU-1, A498) by CellTiter-Glo® as recommended by the manufacturer's instructions (Promega). Analysis and EC50 values were derived using GraphPadPrism."}, "ROCK1": {"molecular_target": "ROCK1 (Homo sapiens (Human), UniProt Q13464)", "assay": "SelectScreen Kinase Profiling: ROCK1", "format": "biochemical", "settings": "tested at 300-350 nM", "source_text": "as §1"}, "SRC": {"molecular_target": "SRC (Homo sapiens (Human), UniProt P12931)", "assay": "SelectScreen Kinase Profiling: SRC", "format": "biochemical", "settings": "tested at 300-350 nM", "source_text": "as §1"}, "KIT": {"molecular_target": "KIT (Homo sapiens (Human), UniProt P10721)", "assay": "SelectScreen Kinase Profiling: KIT", "format": "biochemical", "settings": "tested at 300-350 nM", "source_text": "as §1"}, "RPS6KA3 (RSK2)": {"molecular_target": "RPS6KA3 (RSK2) (Homo sapiens (Human), UniProt P51812)", "assay": "SelectScreen Kinase Profiling: RPS6KA3 (RSK2)", "format": "biochemical", "settings": "tested at 300-350 nM", "source_text": "as §1"}},
  "data": [
    {"smiles": "C=CCn1c(=O)c2cnc(Nc3ccc(N4CCN(C)CC4)cc3)nc2n1-c1cccc(N=S(C)(C)=O)n1", "note": "[Example 5, 1-(6-{[Dimethyl(oxo)-λ^6-sulfanylidene]amino}pyridine-2-yl)-6-{[4-(4-methylpiperazin-1-yl)phenyl]amino}-2-(prop-2-en-1-yl)-1H,2H,3H-pyrazolo[3,4-d]pyrimidin-3-one]", "values": [
      {"measurement": "inhibition of KDR (VEGFR2)", "setting": "KDR (VEGFR2)", "result": "− (inhibition under 50% (tested at 300-350 nM))"},
      {"measurement": "inhibition of AURKA (Aurora A)", "setting": "AURKA (Aurora A)", "result": "− (inhibition under 50% (tested at 300-350 nM))"},
      {"measurement": "inhibition of AMPK A1/B1/G1", "setting": "AMPK A1/B1/G1", "result": "− (inhibition under 50% (tested at 300-350 nM))"},
      {"measurement": "inhibition of MAPK14 (p38 alpha)", "setting": "MAPK14 (p38 alpha)", "result": "− (inhibition under 50% (tested at 300-350 nM))"},
      {"measurement": "inhibition of ERBB2 (HER2)", "setting": "ERBB2 (HER2)", "result": "− (inhibition under 50% (tested at 300-350 nM))"},
      {"measurement": "inhibition of SYK", "setting": "SYK", "result": "− (inhibition under 50% (tested at 300-350 nM))"},
      {"measurement": "inhibition of DYRK3", "setting": "DYRK3", "result": "− (inhibition under 50% (tested at 300-350 nM))"},
      {"measurement": "inhibition of IGF1R", "setting": "IGF1R", "result": "− (inhibition under 50% (tested at 300-350 nM))"},
      {"measurement": "inhibition of EPHA2", "setting": "EPHA2", "result": "− (inhibition under 50% (tested at 300-350 nM))"},
      {"measurement": "inhibition of MAP2K1 (MEK1)", "setting": "MAP2K1 (MEK1)", "result": "− (inhibition under 50% (tested at 300-350 nM))"},
      {"measurement": "inhibition of NEK1", "setting": "NEK1", "result": "− (inhibition under 50% (tested at 300-350 nM))"},
      {"measurement": "inhibition of NTRK1 (TRKA)", "setting": "NTRK1 (TRKA)", "result": "− (inhibition under 50% (tested at 300-350 nM))"},
      {"measurement": "EC50", "setting": "A427 cells", "result": 29, "unit": "nM"},
      {"measurement": "inhibition of ROCK1", "setting": "ROCK1", "result": "− (inhibition under 50% (tested at 300-350 nM))"},
      {"measurement": "inhibition of SRC", "setting": "SRC", "result": "− (inhibition under 50% (tested at 300-350 nM))"},
      {"measurement": "inhibition of KIT", "setting": "KIT", "result": "− (inhibition under 50% (tested at 300-350 nM))"},
      {"measurement": "inhibition of RPS6KA3 (RSK2)", "setting": "RPS6KA3 (RSK2)", "result": "− (inhibition under 50% (tested at 300-350 nM))"}
    ]}
  ]
}
